Tests used:
[1] = tested on: A. wodanis strain 01/09/401 (11); experiment: Antibiotic susceptibility testing on LB plates; type: cell-based, Aliivibrio wodanis; conditions: 12° C. for 2 days
Description: (§1) Antibiotic susceptibility testing was done by streaking A. wodanis cells onto LB plates supplemented with 2.5% NaCl and one of the following antibiotics: Chloramphenicol (2 μg/mL, Tetracycline (10 μg/mL), Carbenicillin (100 or 200 μg/mL) or Kanamycin (50 or 100 μg/mL). A. wodanis was regarded as susceptible (score=0) if no growth was detected, as intermediate susceptible (score=0.5) if poor growth was detected, or as resistant (score=1) if good growth was detected. The tested concentrations of antibiotics were similar to the recommended working concentrations for E. coli, except Chloramphenicol that was tested at 2 μg/mL (instead of 25 μg/mL). If the test scored as “resistant”, then the test was redone using 2× of the recommended concentration. All A. wodanis strains were streaked onto same agar plate and grown at 12° C. for 2 days.

[2] = tested on: A. wodanis strain 02/09/382 (8); experiment: Antibiotic susceptibility testing on LB plates; type: cell-based, Aliivibrio wodanis; conditions: 12° C. for 2 days
Description: as §1

[3] = tested on: A. wodanis strain 02/09/569 (7); experiment: Antibiotic susceptibility testing on LB plates; type: cell-based, Aliivibrio wodanis; conditions: 12° C. for 2 days
Description: as §1

[4] = tested on: A. wodanis strain 03/09/160 (37); experiment: Antibiotic susceptibility testing on LB plates; type: cell-based, Aliivibrio wodanis; conditions: 12° C. for 2 days
Description: as §1

[5] = tested on: A. wodanis strain 04/60/17347 (35); experiment: Antibiotic susceptibility testing on LB plates; type: cell-based, Aliivibrio wodanis; conditions: 12° C. for 2 days
Description: as §1

[6] = tested on: A. wodanis strain 06/09/170 (27); experiment: Antibiotic susceptibility testing on LB plates; type: cell-based, Aliivibrio wodanis; conditions: 12° C. for 2 days
Description: as §1

[7] = tested on: A. wodanis strain 06/09/178 (29); experiment: Antibiotic susceptibility testing on LB plates; type: cell-based, Aliivibrio wodanis; conditions: 12° C. for 2 days
Description: as §1

[8] = tested on: A. wodanis strain 88/09/441 (12) (T); experiment: Antibiotic susceptibility testing on LB plates; type: cell-based, Aliivibrio wodanis; conditions: 12° C. for 2 days
Description: as §1

[9] = tested on: A. wodanis strain 89/09/5532 (1); experiment: Antibiotic susceptibility testing on LB plates; type: cell-based, Aliivibrio wodanis; conditions: 12° C. for 2 days
Description: as §1

[10] = tested on: A. wodanis strain 90/09/325 (5); experiment: Antibiotic susceptibility testing on LB plates; type: cell-based, Aliivibrio wodanis; conditions: 12° C. for 2 days
Description: as §1

[11] = tested on: A. wodanis strain K7F1 150913; type: cell-based, Aliivibrio wodanis; conditions: 12° C. for 2 days
Description: as §1

A. wodanis strains [12] = experiment: Antibiotic resistance test, summary for all strains; type: cell-based, Aliivibrio wodanis; conditions: the twelve strains used in this study
Description: Next, we tested for resistance to antibiotics, four of which are commonly used in biotechnological applications, namely carbenicillin, kanamycin, tetracycline and chloramphenicol.
as §1

A. wodanis strains [13] = conditions: have been reported; cited from earlier work

CC1(C)S[C@@H]2[C@H](NC(=O)C(C(=O)O)c3ccccc3)C(=O)N2[C@H]1C(=O)O (some centres unmarked) [CAR, Carbenicillin]
Antibiotics resistance CAR 100 μg/mL ([1]; 100 μg/mL): 1 | Antibiotics resistance CAR 200 μg/mL ([1]; 200 μg/mL): 1 | Antibiotics resistance CAR 100 μg/mL ([2]; 100 μg/mL): 1 | Antibiotics resistance CAR 200 μg/mL ([2]; 200 μg/mL): 1 | Antibiotics resistance CAR 100 μg/mL ([3]; 100 μg/mL): 1 | Antibiotics resistance CAR 200 μg/mL ([3]; 200 μg/mL): 1 | Antibiotics resistance CAR 100 μg/mL ([4]; 100 μg/mL): 1 | Antibiotics resistance CAR 200 μg/mL ([4]; 200 μg/mL): 1 | Antibiotics resistance CAR 100 μg/mL ([5]; 100 μg/mL): 1 | Antibiotics resistance CAR 200 μg/mL ([5]; 200 μg/mL): 1 | Antibiotics resistance CAR 100 μg/mL ([6]; 100 μg/mL): 1 | Antibiotics resistance CAR 200 μg/mL ([6]; 200 μg/mL): 1 | Antibiotics resistance CAR 100 μg/mL ([7]; 100 μg/mL): 1 | Antibiotics resistance CAR 200 μg/mL ([7]; 200 μg/mL): 1 | Antibiotics resistance CAR 100 μg/mL ([8]; 100 μg/mL): 0.5 | Antibiotics resistance CAR 200 μg/mL ([8]; 200 μg/mL): 0.5 | Antibiotics resistance CAR 100 μg/mL ([9]; 100 μg/mL): 1 | Antibiotics resistance CAR 200 μg/mL ([9]; 200 μg/mL): 1 | Antibiotics resistance CAR 100 μg/mL ([10]; 100 μg/mL): 1 | Antibiotics resistance CAR 200 μg/mL ([10]; 200 μg/mL): 1 | Antibiotics resistance CAR 100 μg/mL ([11]; 100 μg/mL): 1 | Antibiotics resistance CAR 200 μg/mL ([11]; 200 μg/mL): 1 | sensitivity / resistance to antibiotics (A. wodanis strains [12]): resistance

CC1(C)S[C@@H]2[C@H](NC(=O)[C@H](N)c3ccccc3)C(=O)N2[C@H]1C(=O)O [ampicillin]
Resistance of A. wodanis strains (reported) (A. wodanis strains [13]): Resistance

CN(C)[C@@H]1C(O)=C(C(N)=O)C(=O)[C@@]2(O)C(O)=C3C(=O)c4c(O)cccc4[C@@](C)(O)[C@H]3C[C@@H]12 [TET, Tetracycline]
Antibiotics resistance TET 10 μg/mL ([1]; 10 μg/mL): 0 | Antibiotics resistance TET 10 μg/mL ([2]; 10 μg/mL): 0 | Antibiotics resistance TET 10 μg/mL ([3]; 10 μg/mL): 0 | Antibiotics resistance TET 10 μg/mL ([4]; 10 μg/mL): 0 | Antibiotics resistance TET 10 μg/mL ([5]; 10 μg/mL): 0 | Antibiotics resistance TET 10 μg/mL ([6]; 10 μg/mL): 0 | Antibiotics resistance TET 10 μg/mL ([7]; 10 μg/mL): 0 | Antibiotics resistance TET 10 μg/mL ([8]; 10 μg/mL): 0 | Antibiotics resistance TET 10 μg/mL ([9]; 10 μg/mL): 0 | Antibiotics resistance TET 10 μg/mL ([10]; 10 μg/mL): 0 | Antibiotics resistance TET 10 μg/mL ([11]; 10 μg/mL): 0

O=C(N[C@H](CO)[C@H](O)c1ccc([N+](=O)[O-])cc1)C(Cl)Cl [CHL, chloramphenicol]
Antibiotics resistance CHL 2 μg/mL ([1]; 2 μg/mL): 0 | Antibiotics resistance CHL 2 μg/mL ([2]; 2 μg/mL): 0 | Antibiotics resistance CHL 2 μg/mL ([3]; 2 μg/mL): 0 | Antibiotics resistance CHL 2 μg/mL ([4]; 2 μg/mL): 0 | Antibiotics resistance CHL 2 μg/mL ([5]; 2 μg/mL): 0 | Antibiotics resistance CHL 2 μg/mL ([6]; 2 μg/mL): 0 | Antibiotics resistance CHL 2 μg/mL ([7]; 2 μg/mL): 0 | Antibiotics resistance CHL 2 μg/mL ([8]; 2 μg/mL): 0 | Antibiotics resistance CHL 2 μg/mL ([9]; 2 μg/mL): 0 | Antibiotics resistance CHL 2 μg/mL ([10]; 2 μg/mL): 0 | Antibiotics resistance CHL 2 μg/mL ([11]; 2 μg/mL): 0 | sensitivity / resistance to antibiotics (A. wodanis strains [12]): sensitive
